Test results taken from patent US20250321225A1, “SKIN DAMAGE ORGANOID MODEL AND DRUG SCREENING METHOD USING THE SAME” (KANGSTEM BIOTECH CO., LTD., priority 2023, published 2025).

Experiments:
Assay type in all cases: cell-based, human
normal hair follicles = experiment: Hair follicle growth in normal hair follicle organoid; conditions: for hair follicle length compared to the control: 14 days after drug treatment
Description: The hair follicle growth was compared after treatment with each of minoxidil, which is known to promote hair follicle growth, and dihydrotestosterone (DHT), which is an endogenous hormone causing hair loss.

[1] = system: inflammatory cytokines, such as IL-6, TNF-α, and IL-1β; experiment: Inflammatory cytokine expression and secretion in sUV-exposed SkOs (qPCR, immunofluorescence, ELISA)
Description: It is known that sUV irradiation causes the secretion of pro-inflammatory cytokines in skin tissue, leading to skin inflammation and subsequent skin damage. Accordingly, it was investigated whether sUV exposure can also affect hair follicles and induce an inflammatory response in the dermis of SkOs.
Furthermore, the secretion of inflammatory cytokines, such as IL-6, TNF-α, and IL-1β, increased by sUV exposure, was evaluated by ELISA.

NF-κB = experiment: IκB/NF-κB signaling in sUV-exposed SkOs (Western blotting, immunofluorescence)
Description: NF-κB is known to play an important role in regulating the expression of immune mediators. […] When activated by external stimuli such as inflammatory cytokines or cellular stress, the IκBα protein is phosphorylated and subsequently degraded, releasing NF-κB from the NF-κB-IκB complex. The released NF-κB translocates to the cell nucleus to promote the transcription of genes involved in inflammation and induce cytokine production. Considering the above, the present inventors investigated whether IκB-dependent NF-κB activation mediates the inflammatory response in hair follicles.
This caused the disruption of the NF-κB-IκB complex which activated NF-κB and caused it to translocate to the nucleus, as evidenced by increased NF-κB expression in the nuclear compartment of SkOs exposed to sUV. After treating the sUV-exposed SkOs with UCB-Exos, it was observed that both IκBα phosphorylation and degradation decrease, and nuclear translocation of NF-κB was inhibited (FIGS. 7A and 7B). […] Generally, hair follicles are composed of keratinocytes and fibroblasts, both of which play an important role in skin inflammatory responses. […] Meanwhile, the epidermis of SkOs, which is the uppermost layer exposed to sUV, was also inflamed, which may extend to the dermis and indirectly damage hair follicles (FIGS. 7G and 7H).
To evaluate the direct effect of UCB-Exos alleviating sUV-induced damage by NF-κB activation, the present inventors treated a sUV-damaged organoid with the NF-κB inhibitor, BAY11-7082. BAY11-7082 is known to inhibit the translocation of NF-κB to the nucleus by inhibiting the degradation of IκBα unit, thereby preventing further activation of NF-κB signaling.
As expected, it was confirmed that IL-6 expression was positively correlated with the expression level of NF-κB (FIGS. 8A and 8B).

hair follicles in SkOs = experiment: Hair follicle damage in sUV-exposed SkOs
Description: The effects of sUV exposure on skin appendages in the dermis of SkOs were investigated. As a result, it was confirmed that the expression of a KRT5 marker constituting the outer layer of a hair follicle in SkOs was reduced. […] Accordingly, to thoroughly compare the extent of hair follicle damage, hair follicles were isolated from each skin organoid and subjected to qRT-PCR analysis. […] To determine the optimal concentration of UCB-Exos for alleviating SkO damage by sUV, SkOs were treated with different concentrations of UCB-Exos two hours after sUV exposure, and this procedure was repeated three times (FIG. 5A). […] The effect of UCB-Exos on hair follicles in SkOs was investigated. In the hair follicles, apoptosis (cleaved caspase-3^+) was reduced, and the number of regenerating cells (Ki67^+) increased (FIGS. 6A and 6B). In addition, keratinocytes and fibroblasts in the hair follicles aged by sUV are known to secrete MMPs and inflammatory cytokines known as a senescence-associated secretory phenotype (SASP).

SMILES | hair follicle length compared to the control (normal hair follicles) | difference in IL-6 and TNF-α secretion between BAY11-7082-treated SkOs and UCB-Exos-treated SkOs ([1]; ELISA) | IL-6 in the cytoplasm in hair follicles ([1]; immunofluorescence staining) | IκBα degradation (NF-κB; Western blotting, Example 6) | NF-κB nuclear translocation / activation / levels (NF-κB; Western blotting, Example 6) | phosphorylated IκBα (NF-κB; Western blotting, Example 6) | NF-κB translocation to the nuclei in hair follicles (NF-κB; immunofluorescence staining) | expression of genes (IGF-1, WNT3A) associated with hair growth promotion (normal hair follicles; compared to the control) | hair loss-associated genes (DKK1, TGFb-2) (normal hair follicles; compared to the control) | apoptosis / death rate in hair follicles (hair follicles in SkOs; Example 6) | mRNA expression of ECM components associated with inflammatory cytokines and SASP (hair follicles in SkOs; hair follicles)
C[C@]12CCC(=O)C[C@@H]1CC[C@@H]1[C@@H]2CC[C@]2(C)[C@@H](O)CC[C@@H]12 [DHT, dihydrotestosterone] | approximately 0.7 fold | – | – | – | – | – | – | – | – | – | –
Cc1ccc(S(=O)(=O)/C=C/C#N)cc1 [BAY11-7082] | approximately 1.4 fold | no significant difference | significant decrease | inhibition | reduced | decreased | significant decrease | upregulated | downregulated | reduced | dramatically reduced
Nc1cc(N2CCCCC2)nc(N)[n+]1[O-] [minoxidil] | approximately 1.3 fold | – | – | – | – | – | – | – | – | – | –
